Molecular target: T1, Signal transducer and activator of transcription 1-alpha/beta (Homo sapiens, UniProt P42224)
T1 sequence (P42224 whole entry): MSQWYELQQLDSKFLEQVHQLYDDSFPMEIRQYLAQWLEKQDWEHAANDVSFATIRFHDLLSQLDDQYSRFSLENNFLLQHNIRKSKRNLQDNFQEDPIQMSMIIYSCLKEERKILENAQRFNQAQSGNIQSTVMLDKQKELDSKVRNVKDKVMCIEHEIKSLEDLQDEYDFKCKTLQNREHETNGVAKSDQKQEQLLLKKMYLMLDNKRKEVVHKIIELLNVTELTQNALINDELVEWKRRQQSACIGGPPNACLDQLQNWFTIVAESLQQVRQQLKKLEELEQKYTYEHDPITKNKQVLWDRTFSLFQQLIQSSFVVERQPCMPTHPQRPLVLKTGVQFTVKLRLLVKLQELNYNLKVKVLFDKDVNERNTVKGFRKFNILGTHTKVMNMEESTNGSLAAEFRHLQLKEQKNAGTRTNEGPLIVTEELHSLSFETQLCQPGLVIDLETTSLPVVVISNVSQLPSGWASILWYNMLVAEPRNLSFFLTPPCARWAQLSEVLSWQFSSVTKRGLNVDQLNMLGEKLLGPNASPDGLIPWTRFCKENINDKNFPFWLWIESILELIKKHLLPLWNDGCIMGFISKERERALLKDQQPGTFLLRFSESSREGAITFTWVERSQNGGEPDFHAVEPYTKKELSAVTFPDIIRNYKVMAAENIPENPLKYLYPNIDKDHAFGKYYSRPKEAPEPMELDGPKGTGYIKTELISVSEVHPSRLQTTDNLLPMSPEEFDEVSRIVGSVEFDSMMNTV
Experiment: Inhibition of Stat1 (unknown origin) expressed in LPS/INF-gamma-stimulated human MONO-MAC-6 cells assessed as reduction in GAS dependent transcription activity measured after 4 hrs by luciferase reporter gene assay

| IC50 [nM] | Compound |
| --- | --- |
| 2000 | CC(C)[C@H]1CC[C@]23C[C@@H]4[C@H](C)C(=O)[C@H]5O[C@]54[C@@]2(C)CC(=O)[C@]13C |
| 7000 | CC(C)[C@H]1CC[C@]23C[C@@H]4[C@H](C)C(=O)[C@H]5O[C@]54[C@@]2(C)[C@@H](O)C(=O)[C@]13C |
| 2000 | C=C[C@H]1CC[C@]23C[C@@H]4[C@H](C)C(=O)[C@H]5O[C@]54[C@@]2(C)C[C@H](O)[C@]13C |
| > 50000 | C=C[C@H]1CC[C@]23C[C@@H]4[C@H](C)[C@@H](O)[C@H]5O[C@@]45[C@@]2(C)CC(=O)[C@]13C |

Reference: BindingDB's records for doi:10.1016/j.bmc.2016.11.016 (University of Kaiserslautern, 2017)
